Data taken from publication PMC12073402, “A Selective MAP3K1 Inhibitor Facilitates Discovery of NPM1 as a Member of the Network” (Molecules, 2025).

Assays:
Experiment in all cases: KiNativ kinome profiling in PANC-1 lysate
Format in all cases: binding
[1] = molecular target: T1, MAP2K3 (Homo sapiens, UniProt P46734)
T1 construct: endogenous in cells; host or cells: PANC-1 cell lysate
T1 sequence (P46734 1-347): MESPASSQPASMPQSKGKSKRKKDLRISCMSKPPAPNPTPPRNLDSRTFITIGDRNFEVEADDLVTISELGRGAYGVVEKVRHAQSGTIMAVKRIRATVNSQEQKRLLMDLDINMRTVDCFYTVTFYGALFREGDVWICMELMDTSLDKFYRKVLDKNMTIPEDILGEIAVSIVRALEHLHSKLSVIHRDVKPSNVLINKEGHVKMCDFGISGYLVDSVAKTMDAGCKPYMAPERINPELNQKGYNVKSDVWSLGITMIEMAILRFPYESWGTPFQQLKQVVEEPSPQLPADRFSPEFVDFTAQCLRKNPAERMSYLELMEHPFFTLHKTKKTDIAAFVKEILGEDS
Outline: (§1)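 PANC-1 lysates were incubated with 5 μM inhibitor or DMSO, then labeled with a desthiobiotin-ATP acyl-phosphate probe that biotinylates conserved kinase lysines. Tryptic peptides were streptavidin-enriched and quantified by LC-MS/MS, reported as % change in MS signal from duplicate treated and duplicate control samples.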

[2] = molecular target: T2, p70S6K (Homo sapiens, UniProt P23443); settings: Lys2
T2 construct: endogenous in cells; host or cells: PANC-1 cell lysate
Outline: as §1

[3] = molecular target: T3, MASTL (Homo sapiens, UniProt Q96GX5)
T3 construct: endogenous in cells; host or cells: PANC-1
T3 sequence (Q96GX5 whole entry): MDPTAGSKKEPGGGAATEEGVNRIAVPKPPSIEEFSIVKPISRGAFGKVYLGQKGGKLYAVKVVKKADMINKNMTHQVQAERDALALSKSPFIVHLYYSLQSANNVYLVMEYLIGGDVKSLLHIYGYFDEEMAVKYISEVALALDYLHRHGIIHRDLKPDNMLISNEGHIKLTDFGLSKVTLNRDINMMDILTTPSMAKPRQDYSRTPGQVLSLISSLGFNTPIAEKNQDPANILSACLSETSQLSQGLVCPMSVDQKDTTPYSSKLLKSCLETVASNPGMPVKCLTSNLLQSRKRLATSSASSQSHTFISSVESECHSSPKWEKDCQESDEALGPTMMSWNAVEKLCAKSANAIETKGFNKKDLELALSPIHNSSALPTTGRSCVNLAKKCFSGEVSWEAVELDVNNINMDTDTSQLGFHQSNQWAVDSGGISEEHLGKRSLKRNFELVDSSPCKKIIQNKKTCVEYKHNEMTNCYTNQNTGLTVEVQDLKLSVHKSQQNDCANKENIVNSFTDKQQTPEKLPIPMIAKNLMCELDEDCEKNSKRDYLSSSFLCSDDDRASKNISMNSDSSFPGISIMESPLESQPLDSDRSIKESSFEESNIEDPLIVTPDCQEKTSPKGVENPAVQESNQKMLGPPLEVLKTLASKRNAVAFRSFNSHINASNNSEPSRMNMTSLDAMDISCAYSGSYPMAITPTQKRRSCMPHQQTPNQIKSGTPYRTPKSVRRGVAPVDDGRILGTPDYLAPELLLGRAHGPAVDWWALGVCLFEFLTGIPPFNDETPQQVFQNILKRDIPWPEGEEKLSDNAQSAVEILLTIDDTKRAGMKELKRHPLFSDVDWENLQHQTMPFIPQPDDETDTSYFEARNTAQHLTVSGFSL
Outline: as §1

[4] = test system: BRAF, RAF1; settings: 5 µM; Activation Loop; IGDFGLATVKSR
Outline: as §1

[5] = molecular target: T4, DCAMKL2 (Homo sapiens, UniProt Q8N568); settings: Lys2
T4 construct: endogenous in cells; host or cells: PANC-1 lysate
Outline: as §1

[6] = molecular target: T5, RIPK1 (Homo sapiens, UniProt Q13546); settings: Lys2
T5 construct: endogenous in cells; host or cells: PANC-1 cell lysate
Outline: as §1

[7] = molecular target: T6, PI4KB (Homo sapiens, UniProt Q9UBF8); settings: ATP
T6 construct: endogenous in cells; host or cells: PANC-1 cell lysate
T6 sequence (Q9UBF8 whole entry): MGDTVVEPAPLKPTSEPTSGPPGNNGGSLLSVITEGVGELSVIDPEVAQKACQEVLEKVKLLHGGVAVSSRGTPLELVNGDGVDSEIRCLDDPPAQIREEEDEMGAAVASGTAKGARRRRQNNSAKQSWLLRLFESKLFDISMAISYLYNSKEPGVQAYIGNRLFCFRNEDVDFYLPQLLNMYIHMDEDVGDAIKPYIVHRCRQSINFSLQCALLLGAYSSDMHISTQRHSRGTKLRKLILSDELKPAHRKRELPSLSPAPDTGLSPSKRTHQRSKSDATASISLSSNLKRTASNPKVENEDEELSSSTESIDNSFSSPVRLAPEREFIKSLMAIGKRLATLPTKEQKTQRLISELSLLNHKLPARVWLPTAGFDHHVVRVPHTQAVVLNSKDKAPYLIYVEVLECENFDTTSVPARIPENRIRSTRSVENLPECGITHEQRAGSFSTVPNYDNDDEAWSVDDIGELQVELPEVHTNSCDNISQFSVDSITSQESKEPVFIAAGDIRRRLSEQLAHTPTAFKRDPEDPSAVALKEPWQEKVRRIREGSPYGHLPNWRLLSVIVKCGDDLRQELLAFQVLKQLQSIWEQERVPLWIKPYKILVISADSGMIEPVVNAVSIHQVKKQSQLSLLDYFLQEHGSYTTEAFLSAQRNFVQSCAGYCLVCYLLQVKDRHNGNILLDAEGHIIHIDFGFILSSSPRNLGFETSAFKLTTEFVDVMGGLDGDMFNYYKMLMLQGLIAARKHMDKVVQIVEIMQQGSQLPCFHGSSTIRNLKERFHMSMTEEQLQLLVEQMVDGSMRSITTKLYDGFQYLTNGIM
Outline: as §1

[8] = test system: ZC1/HGK, ZC2/TNIK, ZC3/MINK; settings: 5 µM; Lys2; DIKGQNVLLTENAEVK
Outline: as §1

[9] = molecular target: T7, PRP4 (Homo sapiens, UniProt Q13523); settings: Lys2
T7 construct: endogenous in cells; host or cells: PANC-1 cell lysate
Outline: as §1

[10] = molecular target: T8, CLK3 (Homo sapiens, UniProt P49761)
T8 construct: endogenous in cells; host or cells: PANC-1 cell lysate
T8 sequence (P49761 whole entry): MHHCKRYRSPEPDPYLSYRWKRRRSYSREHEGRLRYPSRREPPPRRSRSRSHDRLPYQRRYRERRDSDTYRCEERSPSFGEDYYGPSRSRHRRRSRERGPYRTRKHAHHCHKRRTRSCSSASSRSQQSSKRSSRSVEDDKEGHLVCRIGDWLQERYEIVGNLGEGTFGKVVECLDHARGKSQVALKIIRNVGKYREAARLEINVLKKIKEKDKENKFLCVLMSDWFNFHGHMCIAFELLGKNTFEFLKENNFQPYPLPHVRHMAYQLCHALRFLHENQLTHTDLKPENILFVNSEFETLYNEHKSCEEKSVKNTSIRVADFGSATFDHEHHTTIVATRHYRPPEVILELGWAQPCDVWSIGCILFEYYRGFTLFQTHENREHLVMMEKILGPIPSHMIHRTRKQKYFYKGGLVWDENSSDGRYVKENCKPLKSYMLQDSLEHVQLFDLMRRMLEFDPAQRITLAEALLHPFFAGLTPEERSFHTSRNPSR
Outline: as §1

[11] = molecular target: T9, PIP5K1A (Homo sapiens, UniProt Q99755); settings: ATP
T9 construct: endogenous in cells; host or cells: PANC-1 cell lysate
Outline: as §1

[12] = molecular target: T10, ILK (Homo sapiens, UniProt Q13418)
T10 construct: we opted to conduct a kinome screen (KiNativ) in PANC-1 cell lysates; endogenous in cells; host or cells: PANC-1 cell lysate
T10 sequence (Q13418 whole entry): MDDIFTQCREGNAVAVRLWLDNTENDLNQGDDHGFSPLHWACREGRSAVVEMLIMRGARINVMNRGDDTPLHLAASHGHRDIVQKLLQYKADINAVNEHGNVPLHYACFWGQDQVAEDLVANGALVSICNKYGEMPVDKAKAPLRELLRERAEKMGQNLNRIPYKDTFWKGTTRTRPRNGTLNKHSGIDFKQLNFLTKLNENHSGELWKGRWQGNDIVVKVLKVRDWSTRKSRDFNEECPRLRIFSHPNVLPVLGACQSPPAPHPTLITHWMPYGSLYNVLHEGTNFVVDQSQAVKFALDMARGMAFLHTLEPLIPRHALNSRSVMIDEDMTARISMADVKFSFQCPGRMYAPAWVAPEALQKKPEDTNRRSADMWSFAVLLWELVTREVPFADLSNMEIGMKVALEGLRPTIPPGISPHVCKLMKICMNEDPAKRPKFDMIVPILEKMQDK
Outline: as §1

[13] = molecular target: T11, YANK3 (Homo sapiens, UniProt Q86UX6); settings: Lys2
T11 construct: endogenous in cells; host or cells: PANC-1 cell lysate
Outline: as §1

[14] = molecular target: T12, CaMK2g (Homo sapiens, UniProt Q13555); settings: Lys1
T12 construct: endogenous in cells; host or cells: PANC-1 cell lysate
Outline: as §1

[15] = molecular target: T13, SNRK (Homo sapiens, UniProt Q9NRH2)
T13 construct: endogenous in cells; host or cells: PANC-1 cell lysate
Outline: as §1

[16] = molecular target: T14, LATS2 (Homo sapiens, UniProt Q9NRM7)
T14 construct: we opted to conduct a kinome screen (KiNativ) in PANC-1 cell lysates; endogenous in cells; host or cells: PANC-1 cell lysate
T14 sequence (Q9NRM7 whole entry): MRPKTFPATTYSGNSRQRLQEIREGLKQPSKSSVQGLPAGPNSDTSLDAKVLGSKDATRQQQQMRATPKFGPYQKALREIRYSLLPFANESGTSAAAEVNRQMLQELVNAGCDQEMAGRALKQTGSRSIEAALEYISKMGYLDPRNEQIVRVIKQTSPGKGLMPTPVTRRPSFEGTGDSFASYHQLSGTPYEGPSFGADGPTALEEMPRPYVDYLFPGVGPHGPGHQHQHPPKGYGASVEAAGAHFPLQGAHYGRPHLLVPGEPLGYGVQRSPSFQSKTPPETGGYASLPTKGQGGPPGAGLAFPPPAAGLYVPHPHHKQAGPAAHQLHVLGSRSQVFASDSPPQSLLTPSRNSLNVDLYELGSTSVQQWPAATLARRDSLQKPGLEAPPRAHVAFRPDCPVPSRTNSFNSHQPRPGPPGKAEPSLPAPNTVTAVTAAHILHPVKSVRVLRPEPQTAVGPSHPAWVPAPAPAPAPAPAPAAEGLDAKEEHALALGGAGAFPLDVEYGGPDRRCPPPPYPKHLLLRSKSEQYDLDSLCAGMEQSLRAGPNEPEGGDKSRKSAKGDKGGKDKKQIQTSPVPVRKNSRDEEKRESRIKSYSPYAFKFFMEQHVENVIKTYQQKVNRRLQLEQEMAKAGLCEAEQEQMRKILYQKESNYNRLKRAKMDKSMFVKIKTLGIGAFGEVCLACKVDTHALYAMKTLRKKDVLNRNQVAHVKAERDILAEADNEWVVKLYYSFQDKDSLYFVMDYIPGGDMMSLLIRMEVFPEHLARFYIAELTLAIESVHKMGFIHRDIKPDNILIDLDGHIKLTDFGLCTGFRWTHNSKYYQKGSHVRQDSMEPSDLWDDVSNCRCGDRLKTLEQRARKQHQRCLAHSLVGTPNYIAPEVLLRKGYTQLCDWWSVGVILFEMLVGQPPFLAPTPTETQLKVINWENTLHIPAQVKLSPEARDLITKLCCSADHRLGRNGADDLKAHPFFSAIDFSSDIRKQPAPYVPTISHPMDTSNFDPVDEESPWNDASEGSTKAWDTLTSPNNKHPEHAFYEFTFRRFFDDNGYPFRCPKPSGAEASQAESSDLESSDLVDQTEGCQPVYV
Outline: as §1

[17] = molecular target: T15, NDR1 (Homo sapiens, UniProt Q15208)
T15 construct: endogenous in cells; host or cells: PANC-1
T15 sequence (Q15208 whole entry): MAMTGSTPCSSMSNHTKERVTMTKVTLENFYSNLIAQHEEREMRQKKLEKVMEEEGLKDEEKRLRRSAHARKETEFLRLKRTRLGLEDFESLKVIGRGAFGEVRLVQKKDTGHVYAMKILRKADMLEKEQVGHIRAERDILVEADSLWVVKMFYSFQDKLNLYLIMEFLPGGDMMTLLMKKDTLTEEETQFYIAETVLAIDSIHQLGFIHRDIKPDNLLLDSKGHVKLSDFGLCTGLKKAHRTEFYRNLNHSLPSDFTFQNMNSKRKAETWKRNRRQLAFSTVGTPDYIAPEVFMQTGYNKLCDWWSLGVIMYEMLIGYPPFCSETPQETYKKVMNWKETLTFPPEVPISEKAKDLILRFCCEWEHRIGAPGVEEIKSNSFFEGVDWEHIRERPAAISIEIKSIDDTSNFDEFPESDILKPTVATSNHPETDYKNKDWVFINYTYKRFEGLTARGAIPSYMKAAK
Outline: as §1

[18] = molecular target: T16, CDK2 (Homo sapiens, UniProt P24941)
T16 construct: endogenous in cells; host or cells: PANC-1 cell lysate
Outline: as §1

[19] = molecular target: T17, PIK3C3 (Homo sapiens, UniProt Q8NEB9); settings: ATP
T17 construct: endogenous in cells; host or cells: PANC-1 cell lysate
T17 sequence (Q8NEB9 whole entry): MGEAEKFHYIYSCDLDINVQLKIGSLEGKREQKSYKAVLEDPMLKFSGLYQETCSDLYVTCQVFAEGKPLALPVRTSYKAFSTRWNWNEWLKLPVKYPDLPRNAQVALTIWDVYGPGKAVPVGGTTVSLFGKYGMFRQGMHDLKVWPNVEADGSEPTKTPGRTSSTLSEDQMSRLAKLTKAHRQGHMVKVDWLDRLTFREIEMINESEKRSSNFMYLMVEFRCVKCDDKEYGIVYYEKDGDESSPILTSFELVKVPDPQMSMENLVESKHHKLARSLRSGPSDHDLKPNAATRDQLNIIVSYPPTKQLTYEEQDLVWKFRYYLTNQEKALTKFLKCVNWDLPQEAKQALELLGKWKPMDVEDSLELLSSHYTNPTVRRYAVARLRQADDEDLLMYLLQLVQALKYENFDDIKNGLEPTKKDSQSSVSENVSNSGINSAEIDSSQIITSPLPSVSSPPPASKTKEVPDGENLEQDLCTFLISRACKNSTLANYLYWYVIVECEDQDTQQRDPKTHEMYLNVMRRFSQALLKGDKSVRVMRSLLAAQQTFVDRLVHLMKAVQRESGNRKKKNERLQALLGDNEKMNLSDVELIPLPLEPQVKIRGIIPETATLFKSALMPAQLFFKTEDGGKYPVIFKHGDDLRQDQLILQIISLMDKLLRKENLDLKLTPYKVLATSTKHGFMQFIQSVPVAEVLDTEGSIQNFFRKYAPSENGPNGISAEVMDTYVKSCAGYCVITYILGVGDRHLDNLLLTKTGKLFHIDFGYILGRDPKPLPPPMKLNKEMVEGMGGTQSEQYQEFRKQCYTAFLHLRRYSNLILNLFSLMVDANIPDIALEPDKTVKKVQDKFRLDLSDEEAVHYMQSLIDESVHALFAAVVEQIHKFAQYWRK
Outline: as §1

Cn1cc(-c2cnc3ccc(NC(=O)Nc4ccc(F)c(C(F)(F)F)c4)cc3n2)cn1 [51-106, 1-(4-Fluoro-3-(trifluoromethyl)phenyl)-3-(3-(1-methyl-1H-pyrazol-4-yl)quinoxalin-6-yl)urea]
inhibition at 5 µM ([1]; ATP Loop, MCDFGISGYLVDSVAKTMDAGCKPYMAPER): ≤ 0%
inhibition at 5 µM ([1]; Lys1, HAQSGTIMAVKR): ≤ 0%
inhibition at 5 µM ([1]; Lys2, DVKPSNVLINK): 18.5%
inhibition at 5 µM [2]: ≤ 0%
inhibition at 5 µM ([3]; ATP Loop, GAFGKVYLGQK): 8.6%
inhibition at 5 µM ([3]; Lys1, LYAVKVVK): ≤ 0%
% Inhibition [4]: 12.7%
inhibition at 5 µM [5]: ≤ 0%
inhibition at 5 µM [6]: 3.7%
inhibition at 5 µM ([7]; LLSVIVKCGDDLRQELLAFQVLK): ≤ 0%
inhibition at 5 µM ([7]; VPHTQAVVLNSKDK): 3.9%
% Inhibition [8]: NB (NB = No Binding (≤ 0))
inhibition at 5 µM [9]: ≤ 0%
inhibition at 5 µM ([10]; ATP Loop, YEIVGNLGEGTFGKVVECLDHAR): ≤ 0%
inhibition at 5 µM ([10]; Lys2, FLHENQLTHTDLKPENILFVNSEFETLYNEHK): 4.4%
inhibition at 5 µM [11]: 8.7%
% Inhibition ([12]; 5 µM, Protein Kinase Domain, ISMADVKFSFQCPGR): NB (NB = No Binding (≤ 0))
inhibition at 5 µM ([12]; Lys1, […]): ≤ 0%
inhibition at 5 µM [13]: ≤ 0%
inhibition at 5 µM [14]: 7.1%
inhibition at 5 µM ([15]; Lys1, VAVKVIDK): ≤ 0%
inhibition at 5 µM ([15]; Lys2, DLKPENVVFFEK): 0.4%
inhibition at 5 µM ([16]; Lys1, VDTHALYAMKTLR): ≤ 0%
inhibition at 5 µM ([16]; Lys2, DIKPDNILIDLDGHIK): 1.4%
inhibition at 5 µM ([17]; Lys1, DTGHVYAMKILR): 6%
inhibition at 5 µM ([17]; Lys2, DIKPDNLLLDSK): ≤ 0%
% Inhibition ([18]; 5 µM, Lys1, LTGEVVALKK): 12%
inhibition at 5 µM ([18]; Lys1, LTGEVVALKK): 12.3%
inhibition at 5 µM ([18]; Lys2, DLKPQNLLINTEGAIK): ≤ 0%
inhibition at 5 µM ([19]; TEDGGKYPVIFKHGDDLR): 4.9%
inhibition at 5 µM ([19]; TEDGGKYPVIFKHGDDLRQDQLILQIISLMDK): ≤ 0%
